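Growth conditions: 96-well plates. Treatment: test compound, 48 hours, 5 concentrations. Analysis: linear interpolation between bracketing concentrations; unreached endpoints set to highest concentration. The concentration for 50% growth inhibition is given as GI50.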 Calls of active or inactive are those of the source. Rule as the data show it: active = GI50 up to about 1.1 µM and inactive = higher.
Experiments:
Assay in all cases: inhibition of tumour cell growth, NCI panel, 48 h
786-0 = tested on: 786-0
A498 = tested on: A498
A549 = tested on: A549
ACHN = tested on: ACHN
CAKI-1 = tested on: CAKI-1
HCT-116 = tested on: HCT-116
HOP-62 = tested on: HOP-62
IGROV-1 = tested on: IGROV-1
M14 = tested on: M14
NCI-H226 = tested on: NCI-H226
NCI-H23 = tested on: NCI-H23
NCI-H460 = tested on: NCI-H460
OVCAR-5 = tested on: OVCAR-5
SK-MEL-2 = tested on: SK-MEL-2
SN12C = tested on: SN12C
UACC-257 = tested on: UACC-257
UO-31 = tested on: UO-31
RXF 393 = tested on: RXF 393

Measured: GI50

Cc1cccc(C)c1NC(=O)/C(=N/NC(N)=S)C(C)C(=O)c1ccc(Cl)cc1 (centres undefined)
inactive: 786-0 > 100 µM | A498 > 100 µM | A549 > 100 µM | ACHN > 100 µM | CAKI-1 > 100 µM | HCT-116 > 100 µM | HOP-62 > 100 µM | IGROV-1 > 100 µM | M14 > 100 µM | NCI-H226 > 100 µM | NCI-H23 > 100 µM | NCI-H460 > 100 µM | OVCAR-5 > 100 µM | SK-MEL-2 > 100 µM | SN12C > 100 µM | UACC-257 > 100 µM | UO-31 > 100 µM

O=C1/C(=C/c2cc(O)c(O)c(O)c2)Oc2cc(O)cc(OC3OC(CO)C(O)C(O)C3O)c21 (centres undefined)
inactive: 786-0 27.9 µM | A498 23.9 µM | A549 32.4 µM | ACHN 11.6 µM | HCT-116 16.3 µM | IGROV-1 36.2 µM | M14 21.5 µM | NCI-H23 19.1 µM | NCI-H460 13.9 µM | SK-MEL-2 16.2 µM | SN12C 17.3 µM | UO-31 32.4 µM

O=[PH](O)c1cc2c3ccccc3ccc2c2ccccc12
inactive: 786-0 > 100 µM | A549 > 100 µM | HCT-116 > 100 µM | HOP-62 > 100 µM | IGROV-1 > 100 µM | M14 > 100 µM | NCI-H226 13.9 µM | NCI-H23 > 100 µM | NCI-H460 > 100 µM | RXF 393 > 100 µM | SN12C > 100 µM

Cc1ccc2c(c1)CNc1ccc(C)cc1CN2
inactive: 786-0 > 100 µM | A549 > 100 µM | ACHN > 100 µM | CAKI-1 > 100 µM | HCT-116 > 100 µM | HOP-62 > 100 µM | IGROV-1 > 100 µM | M14 > 100 µM | NCI-H226 > 100 µM | NCI-H23 > 100 µM | NCI-H460 > 100 µM | OVCAR-5 > 100 µM | SK-MEL-2 > 100 µM | SN12C > 100 µM | UO-31 > 100 µM

C=CCc1cc(-c2cc(CC=C)c(O)c(CNCCCl)c2)cc(CNCCCl)c1O
inactive: 786-0 28.6 µM | A498 18.7 µM | A549 24.3 µM | ACHN 16.5 µM | HCT-116 19.4 µM | HOP-62 18 µM | IGROV-1 23.6 µM | M14 18 µM | NCI-H226 18.3 µM | NCI-H23 16 µM | NCI-H460 16.8 µM | SK-MEL-2 19.2 µM | SN12C 19.8 µM | UACC-257 17.4 µM | UO-31 14.5 µM

CN1C(=O)C(=CN)C(=O)N(C)C1=O
inactive: 786-0 > 100 µM | A549 > 100 µM | ACHN > 100 µM | CAKI-1 > 100 µM | M14 > 100 µM | NCI-H226 > 100 µM | NCI-H23 > 100 µM | NCI-H460 > 100 µM | OVCAR-5 > 100 µM | RXF 393 > 100 µM | SK-MEL-2 > 100 µM | SN12C > 100 µM | UACC-257 > 100 µM | UO-31 > 100 µM

COC(=O)C1Cc2c([nH]c3ccccc23)C(C2CCCCC2)N1 (centres undefined)
inactive: 786-0 > 100 µM | A549 > 100 µM | ACHN > 100 µM | CAKI-1 > 100 µM | HCT-116 > 100 µM | IGROV-1 83.9 µM | M14 > 100 µM | NCI-H226 > 100 µM | NCI-H23 > 100 µM | NCI-H460 > 100 µM | OVCAR-5 > 100 µM | SK-MEL-2 > 100 µM | SN12C > 100 µM | UACC-257 > 100 µM | UO-31 > 100 µM

Reference: ChEMBL document CHEMBL1201862, “PubChem BioAssay data set” (2004)
